Legend:
[1] = target: T1, human melatonin 2 receptors (human MT2 receptors) (Homo sapiens, UniProt P49286); test: Melatonin receptor binding inhibitory test, 2-[125I] Iodomelatonin, MT2; settings: membrane fraction of CHO-hMT2 cells, 25° C. for 2.5 hr, read-out: binding inhibitory activity as IC50 value for MT2
T1 construct: expressed in transfected cells; membrane fraction
T1 sequence (P49286 1-362): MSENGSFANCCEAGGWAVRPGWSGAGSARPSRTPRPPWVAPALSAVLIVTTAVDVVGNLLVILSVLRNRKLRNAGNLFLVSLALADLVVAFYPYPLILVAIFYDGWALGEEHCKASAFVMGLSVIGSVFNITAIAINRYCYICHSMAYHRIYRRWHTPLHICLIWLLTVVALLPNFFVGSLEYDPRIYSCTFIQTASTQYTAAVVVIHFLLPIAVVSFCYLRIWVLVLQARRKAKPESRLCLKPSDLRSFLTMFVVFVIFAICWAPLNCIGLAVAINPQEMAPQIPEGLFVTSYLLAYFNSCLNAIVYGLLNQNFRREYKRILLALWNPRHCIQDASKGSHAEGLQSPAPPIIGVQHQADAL
Experimental: (§1) Melatonin Receptor Binding Inhibitory Test
(2) Preparation of CHO-hMT2 Cells Expressing Human Melatonin 2 Receptors
A cDNA fragment (SEQ ID NO: 2) encoding full-length of human melatonin 2 receptors (human MT2 receptors) was incorporated into expression vector pCMV-Script (Stratagene, #212220) to give the plasmid that was pCMV-human MT2 receptors expression vector for animal cell expression. CHO-K1 cells (ATCC, #CCL-61) were plated at the concentration of 1.5×10^5 cells/cm^2 in a 6 well plate (ASAHI TECHNO GLASS), and cultured under the conditions of 37° C., 5% CO2 for 24 hr. For gene transfection, solution obtained by blending pCMV-human MT2 receptors expression vector (1.9 μg), Lipofectamine Transfection Reagent (Invitrogen, #18324-012) (11.3 μL) and Minimum Essential Medium Eagle (MEM) medium (Sigma, M8042) (93.8 μL), and reacting at room temperature for 20 min was added to the cells per one well. The transfected cells were cultured in MEM medium containing 10% FBS (Life Technology) and 300 μg/mL Geneticin (GIBCO, #10131), and the cell line that stably expressed the plasmid gene was selected. By a receptor binding assay using 2-[^125I] Iodomelatonin, CHO-hMT2 cell line showing specific binding of 2-[^125I] Iodomelatonin was selected from the obtained clones.
(§2) (3) Preparation of Cellular Membrane Fraction of CHO Cell (CHO-hMelR7 and CHO-hMT2) Stably Expressing Human MT1 and MT2 Receptors
(§3) CHO-hMelR7 and CHO-hMT2 cells were plated using Cellfactory (Nunc, #170009) under the conditions of 1×10^8 cells/2000 mL/flask. The cells were grown to confluent, and recovered by the following method. As the medium for CHO-hMelR7 and CHO-hMT2, MEM a containing 10% FBS and penicillin/streptomycin was used. […]
(§4) The medium was discarded, cells were washed twice with 200 mL of EDTA/PBS(−), 200 mL of EDTA/PBS(−) was further added, and the cells were stood still at room temperature for 20 min until they were released. The cells were recovered in four 50 mL tubes (Becton Dickinson, #352070), and centrifuged at 1,500 rpm for 10 min at 4° C. using a low speed cooling centrifuge (Hitachi, CF7D2). The supernatant was discarded, the pellets in the four tubes were suspended in 10 mL of PBS(−), and combined in one tube (Becton Dickinson, #352070). The mixture was further centrifuged at 1,500 rpm for 10 min at 4° C., and the obtained pellets were suspended in 20 mL of ice-cooled homogenizing buffer [10 mM NaHCO3, 5 mM EDTA, Protease inhibitor Complete (Roche), pH 7.4]. The cell suspension was homogenized 3 times using a polytron homogenizer at 20,000 rpm for 30 sec. The obtained homogenate was centrifuged (2,000 rpm, 10 min, 4° C.) using a low speed cooling centrifuge. The supernatant was recovered in an ultracentrifugation tube and ultracentrifuged (40,000 rpm, 60 min, 4° C.) using an ultracentrifuge (Beckman, L-90K). To the obtained pellets was added a suspending buffer [50 mM Tris-HCl, 1 mM EDTA, Protease inhibitor Complete (Roche), pH 7.4], and the pellets were suspended by pipetting. The protein concentration of this suspension was measured, diluted to 2 mg/mL to give cellular membrane fractions of CHO-hMelR7 and CHO-hMT2 cells. The membrane fractions were dispensed to 1.5 mL tubes (Eppendorf, #0030120.086) by 100 μL, preserved in a freezer (−80° C.) and used for a binding assay. Protein was quantified using BCA protein assay kit (Pierce) with BSA as the standard.
(§5) (4) Preparation of Membrane Fraction Suspension
(§6) Immediately before use, the membrane fractions of CHO-hMelR7 and CHO-hMT2 cells of the above-mentioned (3) were diluted 20-fold with assay buffer (50 mM Tris-HCl, pH 7.7).
(§7) (5) Preparation of 2-[^125I] Iodomelatonin Solution
(§8) 2-[^125I] Iodomelatonin (#NEX236, PerkinElmer) was diluted with the assay buffer to 400 pM for MT1 and 1 nM for MT2.
The assay buffer (80 μL) of the above-mentioned (4) was added to each well of a 96-well plate (type 3363, Corning). […]

[2] = target: T2, human melatonin 1 receptors (human MT1 receptors) (Homo sapiens, UniProt P48039); test: Melatonin receptor binding inhibitory test, 2-[125I] Iodomelatonin, MT1; settings: membrane fraction of CHO-hMelR7 cells, 25° C. for 2.5 hr, read-out: binding inhibitory activity as IC50 value for MT1
T2 construct: expressed in transfected cells; membrane fraction
T2 sequence (P48039 whole entry): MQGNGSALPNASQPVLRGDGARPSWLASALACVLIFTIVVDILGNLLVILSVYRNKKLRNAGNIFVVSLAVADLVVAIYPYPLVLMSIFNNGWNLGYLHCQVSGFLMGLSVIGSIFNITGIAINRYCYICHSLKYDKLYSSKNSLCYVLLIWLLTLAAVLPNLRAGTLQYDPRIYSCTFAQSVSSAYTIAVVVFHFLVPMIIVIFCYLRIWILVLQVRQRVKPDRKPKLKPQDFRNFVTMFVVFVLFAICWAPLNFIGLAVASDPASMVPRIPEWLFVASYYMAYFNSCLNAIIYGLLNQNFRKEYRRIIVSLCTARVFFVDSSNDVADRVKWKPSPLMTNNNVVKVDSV
Experimental: as §1
(1) Preparation of CHO-hMelR7 Cells expressing Human Melatonin 1 Receptors
A cDNA fragment (SEQ ID NO: 1) encoding full-length of human melatonin 1 receptors (human MT1 receptors) was incorporated into expression vector pAKKO-111H (former name pAKKO1.11H; Biochim Biophys Acta. Vol. 1219(2), pp. 251-259, 1994) to give plasmid pAKKO-hMelR7 for animal cell expression. CHO/dhfr-cells (ATCC, #CRL-9096) were plated at a concentration of 0.3×10^6 cells/dish in a 6 cm culture dish (Becton Dickinson), and cultured under the conditions of 37° C., 5% CO2 for 48 hr. The cells were transfected with pAKKO-hMelR7 plasmid DNA (5 μg) using Cellphect Transfection Kit (Amersham, #27-9268-01). The transfected cells were cultured in Dulbecco's modified Eagle medium (DMEM) (Sigma, #D6046) containing 10% dialyzed FBS (Biowest, #S180D), 1× Non-Essential Amino Acid (Invitrogen, #11140-050) and 50 μg/mL Gentamycin (Invitrogen, #15750-060), and the cell line that stably expressed the plasmid gene was selected. By a receptor binding assay using 2-[^125I] Iodomelatonin, CHO-hMelR7 cell line showing specific binding of 2-[^125I] Iodomelatonin was selected from the obtained clones.
as §2, §3, §4, §5, §6, §7, §8
The assay buffer (80 μL) of the above-mentioned (4) was added to each well of a 96-well plate (type 3363, Corning). Then, a test compound (compound solution diluted with DMSO to 200-fold of the final measurement concentration) was added by 2 μL. […]

Compound | IC50 [1] [nM] | IC50 [2] [nM] | melting point [°C]
CC(=O)NCC1CC1c1cccc2nc(C)sc12 (stereo not shown) [Example 58, N-{[2-(2-methyl-1,3-benzothiazol-7-yl)cyclopropyl]methyl}acetamide] | ≤ 100 | ≤ 100 | 96 to 98
CC(=O)NCC1CC1c1cccc2nscc12 (stereo not shown) [Example 62, N-{[2-(2,1-benzisothiazol-4-yl)cyclopropyl]methyl}acetamide] | ≤ 100 | ≤ 100 | 96 to 97
CCC(=O)NCC1CC1c1cccc2nc(C)cn12 (stereo not shown) [Example 53, N-{[2-(2-methylimidazo[1,2-a]pyridin-5-yl)cyclopropyl]methyl}propanamide] | ≤ 100 | ≤ 100 | 88 to 90
CCC(=O)NC[C@H]1C[C@@H]1c1cccc2nn(C)cc12 [Example 12, N-{[(1S,2S)-2-(2-methyl-2H-indazol-4-yl)cyclopropyl]methyl}propanamide] | ≤ 100 | ≤ 100 | 79 to 80
Cn1cc2c([C@@H]3C[C@H]3CNC(=O)OC(C)(C)C)cccc2n1 (relative stereo) [Example 7, trans-tert-butyl{[2-(2-methyl-2H-indazol-4-yl)cyclopropyl]methyl}carbamate] | – | – | 120 to 121
CC(=O)NCC1CC1c1cccc2nnsc12 (stereo not shown) [Example 60, N-{[2-(1,2,3-benzothiadiazol-7-yl)cyclopropyl]methyl}acetamide] | ≤ 100 | ≤ 100 | 81 to 82
CCC(=O)NCC1CC1c1cccc2nc(C)sc12 (stereo not shown) [Example 59, N-{[2-(2-methyl-1,3-benzothiazol-7-yl)cyclopropyl]methyl}propanamide] | ≤ 100 | ≤ 100 | 59 to 61
CC(=O)NCC1CC1c1c(C2CC2)ccc2nn(C)cc12 (stereo not shown) [Example 33, N-{[2-(5-cyclopropyl-2-methyl-2H-indazol-4-yl)cyclopropyl]methyl}acetamide] | ≤ 100 | ≤ 100 | 102 to 103
CCC(=O)NCC1CC1c1cccc2nc(C)nn12 (stereo not shown) [Example 57, N-{[2-(2-methyl[1,2,4]triazolo[1,5-a]pyridin-5-yl)cyclopropyl]methyl}propanamide] | ≤ 100 | ≤ 100 | 118 to 119
Cn1cc2c([C@@H]3C[C@H]3CNC(=O)c3ccc(Br)cc3)cccc2n1 [Example 15, 4-bromo-N-{[(1R,2R)-2-(2-methyl-2H-indazol-4-yl)cyclopropyl]methyl}benzamide] | – | – | 140 to 142
Cn1cc2c([C@@H]3C[C@H]3CNC(=O)OC(C)(C)C)cccc2n1 [Example 9, tert-butyl{[(1R,2R)-2-(2-methyl-2H-indazol-4-yl)cyclopropyl]methyl}carbamate] | – | – | 140 to 142
Cc1cc2c([C@H]3C[C@@H]3CNC(=O)OC(C)(C)C)cccn2n1 [Example 41, tert-butyl{[(1S,2S)-2-(2-methylpyrazolo[1,5-a]pyridin-4-yl)cyclopropyl]methyl}carbamate] | – | – | 117 to 118
Cn1cc2c([C@H]3C[C@@H]3CNC(=O)OC(C)(C)C)cccc2n1 [Example 8, tert-butyl{[(1S,2S)-2-(2-methyl-2H-indazol-4-yl)cyclopropyl]methyl}carbamate] | – | – | 141 to 142
Cc1cc2c([C@@H]3C[C@H]3CNC(=O)c3ccccc3)cccn2n1 (relative stereo) [Example 50, trans-N-{[2-(2-methylpyrazolo[1,5-a]pyridin-4-yl)cyclopropyl]methyl}benzamide] | – | – | 112 to 113
CC(=O)NCC1CC1c1cccn2nc(C)nc12 (stereo not shown) [Example 3, N-{[2-(2-methyl[1,2,4]triazolo[1,5-a]pyridin-8-yl)cyclopropyl]methyl}acetamide] | – | ≤ 100 | 116 to 118
CCc1ccc2nn(C)cc2c1C1CC1CNC(C)=O (stereo not shown) [Example 32, N-{[2-(5-ethyl-2-methyl-2H-indazol-4-yl)cyclopropyl]methyl}acetamide] | ≤ 100 | ≤ 100 | –
CC(=O)NCC1CC1c1cccc2nc(C(F)(F)F)cn12 (stereo not shown) [Example 54, N-({2-[2-(trifluoromethyl)imidazo[1,2-a]pyridin-5-yl]cyclopropyl}methyl)acetamide] | – | – | 135 to 137
Cc1cc2c([C@@H]3C[C@H]3CNC(=O)OC(C)(C)C)cccn2n1 [Example 42, tert-butyl{[(1R,2R)-2-(2-methylpyrazolo[1,5-a]pyridin-4-yl)cyclopropyl]methyl}carbamate] | – | – | 118 to 119
CCC(=O)NCC1CC1c1cccc2nc(C(F)(F)F)cn12 (stereo not shown) [Example 55, N-({2-[2-(trifluoromethyl)imidazo[1,2-a]pyridin-5-yl]cyclopropyl}methyl)propanamide] | – | – | 148 to 151
Cc1cc2c([C@@H]3C[C@H]3CNC(=O)OC(C)(C)C)cccn2n1 (relative stereo) [Example 40, trans-tert-butyl{[2-(2-methylpyrazolo[1,5-a]pyridin-4-yl)cyclopropyl]methyl}carbamate] | – | – | 105 to 107
CCC(=O)NCC1CC1c1cccn2nc(C)nc12 (stereo not shown) [Example 4, N-{[2-(2-methyl[1,2,4]triazolo[1,5-a]pyridin-8-yl)cyclopropyl]methyl}propanamide] | ≤ 100 | ≤ 100 | –

Source: patent US8110585B2, “Bicyclic compound and pharmaceutical use thereof” (Takeda Pharmaceutical Company Limited, priority 2007, dated 2012)
